Here are results for four molecules from patent publication US10179770B2, “Quinolines derivatives as novel anticancer agents” (GENOSCIENCE PHARMA, priority 2013, dated 2019).

A value given as a limit tells only on which side of the number the result lay.

Holding throughout (type): cell-based, human
The test system of test [1] is patient derived acute myeloid leukemia (AML) cell lines. In words: Cell growth inhibition assay, patient derived AML cells. The settings on record: Homo sapiens, 48 h. As to the method: The patient derived acute myeloid leukemia (AML) cells were obtained after written informed consent under the Institut Paoli Calmette (IPC) institutional review board approval and under the strict compliance of the Helsinki declaration on medical research involving human subjects. […] Each compound was added at different concentrations (combinations of six concentrations) to each well, and cell cultures were incubated for 48 h. Vehicle (H2O) was used as a control, and all compounds were tested in a constant percentage of vehicle. Cell outgrowth was measured using the CellTiter-Glo luminescent cell viability assay as described by the manufacturer (Promega, Ref G7571 Madison, Wis., USA) using a Centro (Berthold, France) plate reader. In each experiment, each point represents the average of triplicates in cell culture. The experimental data are analyzed using a computer program, Graphpad Prism (GraphPad Software, Inc.

The test system of test [2] is OVCAR-3. In words: NCI-60 screen (SRB). To be noted: OVCAR-3 (Ovarian). On the procedure:
(§1) The human tumor cell lines of the cancer screening panel are grown in RPMI 1640 medium containing 5% fetal bovine serum and 2 mM L-glutamine. For a typical screening experiment, cells are inoculated into 96 well microtiter plates in 100 μL at plating densities ranging from 5,000 to 40,000 cells/well depending on the doubling time of individual cell lines. After cell inoculation, the microtiter plates are incubated at 37° C., 5% CO2, 95% air and 100% relative humidity for 24 h prior to addition of experimental drugs.
(§2) After 24 h, two plates of each cell line are fixed in situ with TCA, to represent a measurement of the cell population for each cell line at the time of drug addition (Tz). Experimental drug is solubilized in dimethyl sulfoxide at 400-fold the desired final maximum test concentration and stored frozen prior to use. At the time of drug addition, an aliquot of frozen concentrate is thawed and diluted to twice the desired final maximum test concentration with complete medium containing 50 μg/ml gentamicin. Additional four, 10-fold or ½ log serial dilutions are made to provide a total of five drug concentrations plus control. Aliquots of 100 μl of these different drug dilutions are added to the appropriate microtiter wells already containing 100 μl of medium, resulting in the required final drug concentrations.
(§3) Following drug addition, the plates are incubated for an additional 48 h at 37° C., 5% CO2, 95% air, and 100% relative humidity. For adherent cells, the assay is terminated by the addition of cold TCA. Cells are fixed in situ by the gentle addition of 50 μl of cold 50% (w/v) TCA (final concentration, 10% TCA) and incubated for 60 minutes at 4° C. The supernatant is discarded, and the plates are washed five times with tap water and air dried. Sulforhodamine B (SRB) solution (100 μl) at 0.4% (w/v) in 1% acetic acid is added to each well, and plates are incubated for 10 minutes at room temperature. After staining, unbound dye is removed by washing five times with 1% acetic acid and the plates are air dried. Bound stain is subsequently solubilized with 10 mM trizma base, and the absorbance is read on an automated plate reader at a wavelength of 515 nm. For suspension cells, the methodology is the same except that the assay is terminated by fixing settled cells at the bottom of the wells by gently adding 50 μl of 80% TCA (final concentration, 16% TCA). Using the seven absorbance measurements [time zero, (Tz), control growth, (C), and test growth in the presence of drug at the five concentration levels (Ti)], the percentage growth is calculated at each of the drug concentrations levels.
(§4) Percentage growth inhibition is calculated as: [(Ti−Tz)/(C−Tz)]×100 for concentrations for which Ti>/=Tz (1) [(Ti−Tz)/Tz]×100 for concentrations for which Ti<Tz (2)
(§5) Growth inhibition of 50% (GI50) is calculated from [(Ti−Tz)/(C−Tz)]×100=50 (3)
(§6) which is the drug concentration resulting in a 50% reduction in the net protein increase (as measured by SRB staining) in control cells during the drug incubation.
(§7) The drug concentration resulting in total growth inhibition (TGI) is calculated from Ti=Tz (4)
(§8) The LC50 (concentration of drug resulting in a 50% reduction in the measured protein at the end of the drug treatment as compared to that at the beginning) indicating a net loss of cells following treatment is calculated from [(Ti−Tz)/Tz]×100=−50 (5)
(§9) Values are calculated for each of these three parameters if the level of activity is reached; however, if the effect is not reached or is exceeded, the value for that parameter is expressed as greater or less than the maximum or minimum concentration tested.

The test system of test [3] is PC-3. In words: NCI-60 screen (SRB). The settings on record: PC-3 (Prostate). On the procedure: as §1, §2, §3, §4, §5, §6, §7, §8, §9
Test [4] has as its system UACC-62. In words: NCI-60 screen (SRB). To be noted: UACC-62 (Melanoma). On the procedure:
as §1, §2, §3, §4, §5, §6, §7, §8, §9

As a reminder, the EC50 is the concentration that produces a half-maximal response. As to `CCN(CC)C1CCN(C(C)c2cc(-c3ccc4ccccc4c3)nc3ccccc23)CC1.Cl.Cl` (stereo not shown) [XXIV-3, 2-(2-naphtyl)-4-{1-[4-(N,N-diethylamino)-piperidin-1-yl]-eth-1-yl}quinoline dihydrochloride], the EC50 in test [1] (Patient 3, subtype Tri8) was 2 µM; in test [1] (Patient 8, subtype FLT3−), 10 µM; in test [1] (Patient 9, subtype FLT3+), 17 µM; in test [1] (Patient 10, subtype Inv 3), 13 µM; in test [1] (Patient 12, subtype 5 & 7), 11 µM; in test [1] (Patient 13, subtype MLL), 8 µM. In addition, the EC50 in test [1] (Patient 16, subtype Inv 3) was found to be 6 µM.
As a reminder, the GI50 is the concentration at which growth is held to half of that of the control. The low end stands for greater sensitivity of the cells, the high end for lower sensitivity of the cells. As usually defined, the TGI is the concentration at which net growth stops. High values mean less potent growth arrest, low ones more potent growth arrest. Take `CCN(CC)C1CCN(C(C)c2cc(-c3ccccc3)nc3ccccc23)CC1.Cl.Cl` (stereo not shown) [XIX-3, 2-phenyl-4-{1-[4-(N,N-diethylamino)piperidin-1-yl]-eth-1-yl}quinoline dihydrochloride]: the EC50 in test [1] (Patient 3, subtype Tri8) worked out at 8 µM; in test [1] (Patient 8, subtype FLT3−) it was 21 µM; in test [1] (Patient 9, subtype FLT3+) it was 18 µM; in test [1] (Patient 10, subtype Inv 3), 28 µM; in test [1] (Patient 12, subtype 5 & 7), 16 µM; in test [1] (Patient 13, subtype MLL) it was 16 µM. Also, in test [1] (Patient 16, subtype Inv 3), the EC50 turned out to be 22 µM. The GI50 in test [2] (Homo sapiens) was 14 µM. The CC50 in test [2] (Homo sapiens, read-out: LC50 (the source's name)) came to 55 µM. In test [2], this molecule registered a TGI of 28 µM. The “Growth percent at 10 μM” value in test [2] is given as “+ (cell growth 60 > % < 80)”; in test [3], “+ (cell growth 60 > % < 80)”; in test [4], “×××× (cell growth −60 > % < −80)”.
`CC(C)(C)NC1CCN(c2cc(-c3ccc(Cl)cc3)nc3ccccc23)CC1.Cl.Cl` [XII-4, 2-(4-chloro-phenyl)-4-(4-N-tert-butylamino-piperidin-1-yl)quinoline dihydrochloride]: the EC50 in test [1] (Patient 3, subtype Tri8) was 5 µM; in test [1] (Patient 8, subtype FLT3−), 21 µM; in test [1] (Patient 9, subtype FLT3+), greater than 40 µM; in test [1] (Patient 10, subtype Inv 3) it was 25 µM; in test [1] (Patient 12, subtype 5 & 7), greater than 40 µM; in test [1] (Patient 13, subtype MLL) it was 27 µM. Moreover, in test [1] (Patient 16, subtype Inv 3), the EC50 was 19 µM. Also, the “Growth percent at 10 μM” value in test [2] is “− (cell growth % > 80)”; in test [3], “+++ (cell growth 20 > % < 40)”; in test [4], “××××× (cell growth % < −80)”.
On to `Cc1ccc(-c2cc(N3CCC(NC(C)(C)C)CC3)c3ccccc3n2)cc1.Cl.Cl` [XIII-8, 2-(4-methyl-phenyl)-4-(4-N-tert-butylamino-piperidin-1-yl)quinoline dihydrochloride], for which the EC50 stood at 15 µM in test [1] (Patient 3, subtype Tri8); 27 µM in test [1] (Patient 8, subtype FLT3−); 22 µM in test [1] (Patient 9, subtype FLT3+); 35 µM in test [1] (Patient 10, subtype Inv 3); 21 µM in test [1] (Patient 12, subtype 5 & 7); 25 µM in test [1] (Patient 13, subtype MLL). In addition, the EC50 in test [1] (Patient 16, subtype Inv 3) is 24 µM.
